Source: EP0183129A1, “Quinolonecarboxylic acid derivatives” (KYORIN PHARMACEUTICAL CO., LTD., priority 1984, dated 1986)

Experiments:
[1] = system: Alcaligenes faecalis 0104002; assay: In vitro antibacterial activity, MIC (standard strain); type: cell-based; conditions: Alcaligenes faecalis, 0104002
K. pneumoniae 1-220S = assay: as above; type: cell-based; conditions: Klebsiella pneumoniae, 1220S
S. agalactiae 4342 = assay: In vitro antibacterial activity, MIC (clinical isolates); type: cell-based; conditions: Streptococcus agalactiae, 4342
S. faecalis IID 682 = assay: In vitro antibacterial activity, MIC (standard strain); type: cell-based; conditions: Enterococcus faecalis, IID682
S. pyogenes 4372 = assay: In vitro antibacterial activity, MIC (clinical isolates); type: cell-based; conditions: Streptococcus pyogenes, 4372
S. agalactiae 4368 = assay: as above; type: cell-based; conditions: Streptococcus agalactiae, 4368
S. faecalis 49 = assay: as above; type: cell-based; conditions: Enterococcus faecalis, 49
[2] = system: Morganella morganii IID 602; assay: In vitro antibacterial activity, MIC (standard strain); type: cell-based; conditions: Morganella morganii, IID602
[3] = system: Bacteroides fragilis GM 7000; assay: as above; type: cell-based; conditions: Bacteroides fragilis, GM7000
S. agalactiae 4468 = assay: In vitro antibacterial activity, MIC (clinical isolates); type: cell-based; conditions: Streptococcus agalactiae, 4468
S. pyogenes 3130 = assay: as above; type: cell-based; conditions: Streptococcus pyogenes
S. pneumoniae 2054 = assay: as above; type: cell-based; conditions: Streptococcus pneumoniae, 2054
S. pyogenes IID 692 = assay: In vitro antibacterial activity, MIC (standard strain); type: cell-based; conditions: Streptococcus pyogenes, IID692
[4] = system: Staphylococcus aureus 209 P; assay: as above; type: cell-based; conditions: Staphylococcus aureus, 209P
S. pyogenes 4340 = assay: In vitro antibacterial activity, MIC (clinical isolates); type: cell-based; conditions: Streptococcus pyogenes, 4340
[5] = system: Klebsiella pneumoniae KY(GN)6445; assay: In vitro antibacterial activity, MIC (standard strain); type: cell-based; conditions: Klebsiella pneumoniae
P. aeruginosa IFO 12689 = assay: as above; type: cell-based, Pseudomonas aeruginosa; conditions: Pseudomonas aeruginosa, IFO12689
[6] = system: S. aureus IID 670 (Terajima); assay: as above; type: cell-based, Staphylococcus aureus; conditions: Staphylococcus aureus, IID670
C. ramosum = assay: as above; type: cell-based; conditions: Thomasclavelia ramosa
S. pneumoniae 3227 = assay: In vitro antibacterial activity, MIC (clinical isolates); type: cell-based; conditions: Streptococcus pneumoniae, 3227
[7] = system: Salmonella entritidis IID 604; assay: In vitro antibacterial activity, MIC (standard strain); type: cell-based; conditions: Salmonella, IID604
S. epidermidis IID 866 = assay: as above; type: cell-based; conditions: Staphylococcus epidermidis, IID866
E. coli ML 4707 = assay: as above; type: cell-based; conditions: Escherichia coli, ML4707
[8] = system: Clostridium perfringens KYA 13123; assay: microbe, parasite or virus in culture; type: cell-based; conditions: KYA13123
[9] = system: Citrobacter freundii IID 976; assay: In vitro antibacterial activity, MIC (standard strain); type: cell-based; conditions: Citrobacter freundii, IID976
P. aeruginosa IID 1210 = assay: as above; type: cell-based; conditions: Pseudomonas aeruginosa, IID1210
S. pyogenes 3107 = assay: In vitro antibacterial activity, MIC (clinical isolates); type: cell-based; conditions: Streptococcus pyogenes, 3107
S. agalactiae 4394 = assay: as above; type: cell-based; conditions: Streptococcus agalactiae, 4394
[10] = system: Yersinia enterocolitica IID 981; assay: In vitro antibacterial activity, MIC (standard strain); type: cell-based; conditions: Yersinia enterocolitica, IID981
S. pneumoniae IID 552 = assay: as above; type: cell-based; conditions: Streptococcus pneumoniae, IID552
S. faecalis 402 = assay: In vitro antibacterial activity, MIC (clinical isolates); type: cell-based; conditions: Enterococcus faecalis, 402
S. agalactiae 4470 = assay: as above; type: cell-based; conditions: Streptococcus agalactiae, 4470
S. agalactiae 4049 = assay: as above; type: cell-based; conditions: Streptococcus agalactiae, 4049
S. aureus Smith = assay: In vitro antibacterial activity, MIC (standard strain); type: cell-based, Staphylococcus aureus; conditions: Staphylococcus aureus; S. aureus Smith; 10^6 cells/ml; standard strain
[11] = system: Streptococcus pyogenes S-8; assay: as above; type: cell-based; conditions: Streptococcus pyogenes, S8
B. fragilis 0558 = assay: as above; type: cell-based, Bacteroides fragilis; conditions: Bacteroides fragilis, 0558
[12] = system: Enterobacter cloacae IID 977; assay: as above; type: cell-based; conditions: Enterobacter cloacae, IID977
S. faecalis 214 = assay: In vitro antibacterial activity, MIC (clinical isolates); type: cell-based; conditions: Enterococcus faecalis, 214
S. pyogenes 3102 = assay: as above; type: cell-based; conditions: Streptococcus pyogenes, 3102
S. faecalis 401 = assay: as above; type: cell-based; conditions: Enterococcus faecalis, 401
[13] = system: Serratia marcescens IID 618; assay: In vitro antibacterial activity, MIC (standard strain); type: cell-based; conditions: Serratia marcescens, IID618
S. pneumoniae 2950 = assay: In vitro antibacterial activity, MIC (clinical isolates); type: cell-based; conditions: Streptococcus pneumoniae, 2950
Shigella sonnei IID 969 = assay: In vitro antibacterial activity, MIC (standard strain); type: cell-based; conditions: IID969, 10^6 cells/ml
Procedure: Experiment-1 In vitro antibacterial activity
The in vitro antibacterial activity against gram-positive and gram-negative bacteria has been investivated.
The minimum inhibitory concentration (MIC) was determined in accordance with the method recommended by Japan Society of Chemotherapy.

S. pneumoniae 15 = assay: In vitro antibacterial activity, MIC (clinical isolates); type: cell-based; conditions: Streptococcus pneumoniae, 15
[14] = system: Proteus vulgaris IFO 3167; assay: In vitro antibacterial activity, MIC (standard strain); type: cell-based; conditions: Proteus vulgaris, IFO3167
[15] = system: Fusobacterium varium KYA 8501; assay: as above; type: cell-based; conditions: Fusobacterium varium, KYA8501
[16] = system: Acinetobacter anitratus IID 876; assay: as above; type: cell-based; conditions: Acinetobacter calcoaceticus, IID876
[17] = system: Pseudomonas aeruginosa V-1; assay: as above; type: cell-based; conditions: Pseudomonas aeruginosa, V1
B. fragilis 25285 = assay: as above; type: cell-based, Bacteroides fragilis; conditions: Bacteroides fragilis, 25285
[18] = system: Bacillus subtilis PCI 219; assay: as above; type: cell-based; conditions: Bacillus subtilis, PCI219
E. coli ATCC 10536 = assay: as above; type: cell-based; conditions: Escherichia coli, ATCC10536
P. mirabilis IID 994 = assay: as above; type: cell-based; conditions: Proteus mirabilis, IID994
[19] = system: Escherichia coli NIHJ JC-2; assay: as above; type: cell-based; conditions: Escherichia coli, NIHJJC2
S. marcescens GN 7577 = assay: as above; type: cell-based; conditions: Serratia marcescens, GN7577
M. pneumoniae Mac. = assay: In vitro antibacterial activity against Mycoplasma, MIC; type: cell-based; conditions: Mycoplasmoides pneumoniae, 120 h
Source text: Experiment-3 In vitro antibacterial activity against Mycoplasma

Measured: MIC

NCC1CCN(c2cc3c(cc2F)c(=O)c(C(=O)O)cn3C2CC2)C1 (stereo not drawn) [Example 6, 7-(3-Aminomethyl-l-pyrrolidinyl)-l-cyclopropyl-6-fluoro-l,4-dihydro-4-oxo-3-quinolinecarboxylic acid]
12.5 µg/mL: C. ramosum | B. fragilis 25285
0.39 µg/mL: S. faecalis IID 682 | S. faecalis 49 | [2] | S. pneumoniae 2054 | S. agalactiae 4394 | S. faecalis 402 | S. agalactiae 4049 | S. faecalis 214 | S. faecalis 401 | [13]
0.1 µg/mL: S. pyogenes 4372 | [5] | [9] | S. pneumoniae IID 552 | [11] | P. mirabilis IID 994
0.78 µg/mL: P. aeruginosa IFO 12689 | [16] | [17]
6.25 µg/mL: [3] | B. fragilis 0558
1.56 µg/mL: [1]
25 µg/mL: [15]
3.13 µg/mL: [8] | P. aeruginosa IID 1210 | S. marcescens GN 7577
0.05 µg/mL: S. pyogenes 3130 | [4] | S. pyogenes 4340 | [6] | S. epidermidis IID 866 | E. coli ML 4707 | S. pyogenes 3107 | S. pyogenes 3102 | Shigella sonnei IID 969 | [14] | [18] | E. coli ATCC 10536 | [19]
not listed: M. pneumoniae Mac.
0.2 µg/mL: all other assays above

CN(C)[C@@H]1C(O)=C(C(N)=O)C(=O)[C@@]2(O)C(O)=C3C(=O)c4c(O)cccc4[C@@](C)(O)[C@H]3C[C@@H]12 [TC, Tetracycline, reference compound]
0.78 µg/mL: M. pneumoniae Mac.
